Among the data in patent US7473688B2, “Indolobenzazepine HCV NS5B inhibitors” (Bristol-Myers Squibb Company, priority 2005, dated 2009) are IC50 values, retold here.

SMILES strings stand for the structures. Where only a bound is given, the exact number is not on record here.

For this assay, the target named is T1, HCV NS5B (Hepatitis C virus genotype 1b, UniProt Q9WMX2).
T1 construct: The protein was expressed with an 18 amino acid C-terminal truncation to enhance the solubility; made in house; host or cells: E. coli BL21 (DE3), pET21a
T1 sequence (Q9WMX2 2420-2992): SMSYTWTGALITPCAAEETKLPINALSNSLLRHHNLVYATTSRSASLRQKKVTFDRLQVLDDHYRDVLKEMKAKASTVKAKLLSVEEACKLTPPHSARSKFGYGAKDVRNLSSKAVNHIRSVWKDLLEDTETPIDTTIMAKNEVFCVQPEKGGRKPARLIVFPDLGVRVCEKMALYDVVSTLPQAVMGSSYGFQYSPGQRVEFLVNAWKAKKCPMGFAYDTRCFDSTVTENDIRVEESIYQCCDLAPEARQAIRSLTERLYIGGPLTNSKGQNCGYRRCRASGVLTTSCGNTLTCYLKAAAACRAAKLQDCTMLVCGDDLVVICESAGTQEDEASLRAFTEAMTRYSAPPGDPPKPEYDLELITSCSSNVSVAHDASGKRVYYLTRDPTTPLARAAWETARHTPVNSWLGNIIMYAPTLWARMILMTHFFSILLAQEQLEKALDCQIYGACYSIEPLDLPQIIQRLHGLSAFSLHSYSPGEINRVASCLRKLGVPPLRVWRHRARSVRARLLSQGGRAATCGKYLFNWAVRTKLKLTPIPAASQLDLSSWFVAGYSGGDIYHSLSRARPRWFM
The assay is described as follows: HCV NS5B RdRp enzyme assay (preincubation protocol). The format is biochemical. The settings on record: Table 1a, read-out: IC50*. The method, then: HCV NS5B RdRp cloning, expression, and purification. The cDNA encoding the NS5B protein of HCV, genotype 1b, was cloned into the pET21a expression vector. The protein was expressed with an 18 amino acid C-terminal truncation to enhance the solubility. The E. coli competent cell line BL21 (DE3) was used for expression of the protein. Cultures were grown at 37° C. for ˜4 hours until the cultures reached an optical density of 2.0 at 600 nm. The cultures were cooled to 20° C. and induced with 1 mM IPTG. Fresh ampicillin was added to a final concentration of 50 μg/ml and the cells were grown overnight at 20° C.
Cell pellets (3L) were lysed for purification to yield 15-24 mgs of purified NS5B. The lysis buffer consisted of 20 mM Tris-HCl, pH 7.4, 500 mM NaCl, 0.5% triton X-100, 1 mM DTT, 1 mM EDTA, 20% glycerol, 0.5 mg/ml lysozyme, 10 mM MgCl2, 15 ug/ml deoxyribonuclease I, and Complete TM protease inhibitor tablets (Roche). After addition of the lysis buffer, frozen cell pellets were resuspended using a tissue homogenizer. To reduce the viscosity of the sample, aliquots of the lysate were sonicated on ice using a microtip attached to a Branson sonicator. The sonicated lysate was centrifuged at 100,000×g for 1 hr at 4° C. and filtered through a 0.2 μm filter unit (Corning).
The protein was purified using three sequential chromatography steps: Heparin sepharose CL-6B, polyU sepharose 4B, and Hitrap SP sepharose (Pharmacia). The chromatography buffers were identical to the lysis buffer but contained no lysozyme, deoxyribonuclease I, MgCl2 or protease inhibitor and the NaCl concentration of the buffer was adjusted according to the requirements for charging the protein onto the column. Each column was eluted with a NaCl gradient which varied in length from 5-50 column volumes depending on the column type. After the final chromatography step, the resulting purity of the enzyme is >90% based on SDS-PAGE analysis. The enzyme was aliquoted and stored at −80° C.
Standard HCV NS5B RdRp enzyme assay. HCV RdRp genotype 1b assays were run in a final volume of 60 μl in 96 well plates (Costar 3912). The assay buffer is composed of 20 mM Hepes, pH 7.5, 2.5 mM KCl, 2.5 mM MgCl2, 1 mM DTT, 1.6 U RNAse inhibitor (Promega N2515), 0.1 mg/ml BSA (Promega R3961), and 2% glycerol. All compounds were serially diluted (3-fold) in DMSO and diluted further in water such that the final concentration of DMSO in the assay was 2%. HCV RdRp genotype 1b enzyme was used at a final concentration of 28 nM. A polyA template was used at 6 nM, and a biotinylated oligo-dT12 primer was used at 180 nM final concentration. Template was obtained commercially (Amersham 27-4110). Biotinylated primer was prepared by Sigma Genosys. 3H-UTP was used at 0.6 μCi (0.29 μM total UTP). Reactions were initiated by the addition of enzyme, incubated at 30° C. for 60 min, and stopped by adding […] of 50 mM EDTA containing SPA beads (4 μg/μl, Amersham RPNQ 0007). Plates were read on a Packard Top Count NXT after >1 hr incubation at room temperature.
Modified HCV NS5B RdRp enzyme assay. A modified enzyme assay was performed essentially as described for the standard enzyme assay except for the following: The biotinylated oligo dT12 primer was precaptured on streptavidin-coated SPA beads by mixing primer and beads in assay buffer and incubating at room temperature for one hour. Unbound primer was removed after centrifugation. The primer-bound beads were resuspended in 20 mM Hepes buffer, pH 7.5 and used in the assay at final concentrations of […] primer and 0.67 μg/μl beads. Order of addition in the assay: Enzyme (14 nM) was added to diluted compound followed by the addition of a mixture of template (0.2 nM), 3H-UTP (0.6 μCi, 0.29 μM), and primer-bound beads, to initiate the reaction; concentrations given are final. Reactions were allowed to proceed for 4 hours at 30° C.
IC50 values for compounds were determined using seven different [I]. […]
Regarding `COC(=O)c1ccc2c(C3CCCCC3)c3n(c2c1)CC(NC(=O)C1CCOCC1)Cc1ccccc1-3` (stereo not drawn), the IC50 was > 1000 nM.

In the case of `O=C(O)c1ccc2c(C3CCCCC3)c3n(c2c1)CC(NC(=O)C1CCOCC1)Cc1ccccc1-3` (stereo not drawn), the IC50 was in the range of 10 to 1000 nM.

Turning to `O=C(NCc1nc2ccccc2[nH]1)c1ccc2c(C3CCCCC3)c3n(c2c1)CC(C(=O)N1CCC(N2CCOCC2)CC1)=Cc1ccccc1-3`, the concentration for half-maximal inhibition (IC50) fell in the range of 10 to 1000 nM.

In the case of `COC(=O)[C@@H]1C[C@@H](O)CN1C(=O)C1=Cc2cc(OC)ccc2-c2c(C3CCCCC3)c3ccc(C(=O)NS(=O)(=O)N(C)C)cc3n2C1`, the IC50 was 10 to 1000 nM.

With `COc1ccc2c(c1)C=C(C(=O)N1CCN(C(C)=O)CC1)Cn1c-2c(C2CCCCC2)c2ccc(C(=O)NS(=O)(=O)N(C)C)cc21`, the IC50 lay in the range of 10 to 1000 nM.

For `COc1ccc2c(c1)C=C(C(=O)N1C[C@H](O)C[C@H]1C(=O)Nc1ccc3c(C)cc(=O)oc3c1)Cn1c-2c(C2CCCCC2)c2ccc(C(=O)NS(=O)(=O)N(C)C)cc21`, the IC50 fell in the range of 10 to 1000 nM.

On to `COc1ccc2c(c1)C=C(C(=O)N1CCN(C(=O)c3ccco3)CC1)Cn1c-2c(C2CCCCC2)c2ccc(C(=O)NS(=O)(=O)N(C)C)cc21`, for which the IC50 lay within 10 to 1000 nM.

With `COc1ccc2c(c1)C=C(C(=O)N1CCN(c3ccccc3OC)CC1)Cn1c-2c(C2CCCCC2)c2ccc(C(=O)NS(=O)(=O)N(C)C)cc21`, the IC50 lay in the range of 10 to 1000 nM.

For `COc1ccc2c(c1)C=C(C(=O)N1CCN(C(=O)N(C)C)CC1)Cn1c-2c(C2CCCCC2)c2ccc(C(=O)NS(=O)(=O)N(C)C)cc21`, the IC50 fell in the range of 10 to 1000 nM.

For the compound `COc1ccc2c(c1)C=C(C(=O)N1CCN(C(=O)N3CCCC3)CC1)Cn1c-2c(C2CCCCC2)c2ccc(C(=O)NS(=O)(=O)N(C)C)cc21`, the IC50 was in the range of 10 to 1000 nM.

`COc1ccc2c(c1)C=C(C(=O)N1CCN(C(=O)N3CCCCC3)CC1)Cn1c-2c(C2CCCCC2)c2ccc(C(=O)NS(=O)(=O)N(C)C)cc21`: the IC50 is 10 to 1000 nM.

For the compound `COc1ccc2c(c1)C=C(C(=O)N1CCC(O)(c3cccnc3)CC1)Cn1c-2c(C2CCCCC2)c2ccc(C(=O)NS(=O)(=O)N(C)C)cc21`, the IC50 fell in the range of 10 to 1000 nM.

For `COc1ccc2c(c1)C=C(C(=O)N1CCC3(CC1)OC(=O)c1ccccc13)Cn1c-2c(C2CCCCC2)c2ccc(C(=O)NS(=O)(=O)N(C)C)cc21`, the IC50 was in the range of 10 to 1000 nM.

Turning to `COC(=O)CNC(=O)CNC(=O)C1=Cc2cc(OC)ccc2-c2c(C3CCCCC3)c3ccc(C(=O)NS(=O)(=O)N(C)C)cc3n2C1`, the IC50 was 10 to 1000 nM.

In the case of `COc1ccc2c(c1)C=C(C(=O)N1CCN(C(=O)CO)CC1)Cn1c-2c(C2CCCCC2)c2ccc(C(=O)NS(=O)(=O)N(C)C)cc21`, the IC50 was in the range of 10 to 1000 nM.

Regarding `CN(C)S(=O)(=O)NC(=O)c1ccc2c(C3CCCCC3)c3n(c2c1)CC(NC(=O)C1CCOCC1)Cc1ccccc1-3` (stereo not drawn), the IC50 was in the range of 10 to 1000 nM.

For the compound `CN(C)S(=O)(=O)NC(=O)c1ccc2c(C3CCCCC3)c3n(c2c1)C[C@@H](NC(=O)N1CCOCC1)Cc1ccccc1-3`, the IC50 lay within 10 to 1000 nM.

On to `CN(C)S(=O)(=O)NC(=O)c1ccc2c(C3CCCCC3)c3n(c2c1)C[C@H](NC(=O)N1CCOCC1)Cc1ccccc1-3`, for which the IC50 lay within 10 to 1000 nM.

For `COc1ccc2c(c1)C=C(C(=O)NCCNC(C)=O)Cn1c-2c(C2CCCCC2)c2ccc(C(=O)NS(=O)(=O)N(C)C)cc21`, the IC50 was 10 to 1000 nM.

As to `COc1ccc2c(c1)C=C(C(=O)N1CCC[C@H]1C(=O)N(C)C)Cn1c-2c(C2CCCCC2)c2ccc(C(=O)NS(=O)(=O)N(C)C)cc21`, the IC50 lay within 10 to 1000 nM.

In the case of `COc1ccc2c(c1)C=C(C(=O)N1CCC(Oc3ncccn3)CC1)Cn1c-2c(C2CCCCC2)c2ccc(C(=O)NS(=O)(=O)N(C)C)cc21`, the IC50 lay within 10 to 1000 nM.

For the compound `COc1ccc2c(c1)C=C(C(=O)N1CCN(CC(F)(F)F)CC1)Cn1c-2c(C2CCCCC2)c2ccc(C(=O)NS(=O)(=O)N3CCOCC3)cc21`, the IC50 was 10 to 1000 nM.

As to `COC(=O)c1ccc2c(C3CCCCC3)c3n(c2c1)CC(C(=O)NCc1ncco1)Cc1cc(OC)ccc1-3` (stereo not drawn), the IC50 is 10 to 1000 nM.

In the case of `O=C(NS(=O)(=O)N1CCOCC1)c1ccc2c(C3CCCCC3)c3n(c2c1)CC(C(=O)N1CCN(CC(F)(F)F)CC1)=Cc1ccccc1-3`, the IC50 lay within 10 to 1000 nM.

As a reminder, the IC50 is the concentration needed to halve the response being measured.
